How the values were obtained:
[1] = target: GDP-bound KRAS wild-type protein (Homo sapiens, UniProt P01116); assay: Binding to KRAS by surface plasmon resonance (SPR), Single Cycle Kinetics; conditions: SPR, Single Cycle Kinetics, 1:1 binding model; GDP-bound KRAS wild-type protein; read-out: KRAS KD
[2] = target: GDP-bound NRAS wild-type protein (Homo sapiens, UniProt P01111); assay: Binding to NRAS by surface plasmon resonance (SPR), Single Cycle Kinetics; conditions: SPR; GDP-bound NRAS wild-type protein vs GDP-bound KRAS wild-type protein; KD ratio class
[3] = tested on: human lung cancer strain NCI-H441;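 also: cell proliferation inhibition after four days measured by CellTiter-Glo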
[4] = target: GDP-bound HRAS wild-type protein (Homo sapiens, UniProt P01112); assay: Binding to HRAS by surface plasmon resonance (SPR), Single Cycle Kinetics; conditions: SPR; GDP-bound HRAS wild-type protein vs GDP-bound KRAS wild-type protein; KD ratio class
Chain of GDP-bound HRAS wild-type protein (P01112 whole entry): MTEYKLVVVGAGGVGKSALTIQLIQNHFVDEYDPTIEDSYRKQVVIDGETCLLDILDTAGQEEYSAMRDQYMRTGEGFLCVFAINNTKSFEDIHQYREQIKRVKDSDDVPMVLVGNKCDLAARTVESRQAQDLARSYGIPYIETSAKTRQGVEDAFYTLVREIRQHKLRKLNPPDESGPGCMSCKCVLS

Chain of GDP-bound NRAS wild-type protein (P01111 whole entry): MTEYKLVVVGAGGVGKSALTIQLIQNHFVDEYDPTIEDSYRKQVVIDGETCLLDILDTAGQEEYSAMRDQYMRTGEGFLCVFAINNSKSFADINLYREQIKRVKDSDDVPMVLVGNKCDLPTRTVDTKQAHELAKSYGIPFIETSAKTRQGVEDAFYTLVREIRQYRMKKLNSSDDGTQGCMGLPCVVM
Chain of GDP-bound KRAS wild-type protein (P01116 whole entry): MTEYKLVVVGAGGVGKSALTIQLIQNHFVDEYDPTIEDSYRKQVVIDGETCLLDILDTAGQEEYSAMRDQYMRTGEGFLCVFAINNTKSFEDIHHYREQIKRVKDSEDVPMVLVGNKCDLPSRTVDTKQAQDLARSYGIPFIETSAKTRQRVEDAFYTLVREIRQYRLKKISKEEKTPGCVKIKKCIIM

| SMILES | Kd [1] | IC50 [3] | NRAS/KRAS (ratio of KD value for NRAS to KD value for KRAS) [2] | HRAS/KRAS (ratio of KD value for HRAS to KD value for KRAS) [4] |
| --- | --- | --- | --- | --- |
| CCO[C@@H]1C[C@H]2C(=O)NC3(CCC3)C(=O)N(C)[C@@H](C(CC)CC)C(=O)N(C)[C@H](C(=O)N(C)C)CC(=O)N(C)[C@@H](CC(C)C)C(=O)N[C@@H]([C@@H](C)CC)C(=O)N(C)CC(=O)N(C)[C@H]3C/C=C\CCN(C3=O)[C@@H](Cc3ccc(C(F)(F)F)cc3)C(=O)N(C)CC(=O)N[C@@H](CCc3ccc(C(F)(F)F)c(OC)c3)C(=O)N2C1 [PP1209] | 0.22 nM | 15.9 nM | AA (a compound having 20 or more is denoted as AA) | A (a compound having 10 or more and less than 20 is denoted as A) |
| CCO[C@@H]1C[C@H]2C(=O)NC3(CCC3)C(=O)N(C)[C@@H](C(CC)CC)C(=O)N(C)[C@H](C(=O)N(C)C)CC(=O)N(C)[C@@H](CC3CC3)C(=O)N[C@@H]([C@@H](C)CC)C(=O)N(C)CC(=O)N(C)[C@H]3C/C=C\CCN(C3=O)[C@@H](Cc3ccc(C(F)(F)F)cc3)C(=O)N(C)CC(=O)N[C@@H](CCc3ccc(C(F)(F)F)c(OC)c3)C(=O)N2C1 [PP1211] | 0.27 nM | 26.8 nM | A (a compound having 10 or more and less than 20 is denoted as A) | B (a compound having 3 or more and less than 10 is denoted as B) |
| CCO[C@@H]1C[C@H]2C(=O)NC3(CCC3)C(=O)N(C)[C@@H](C(CC)CC)C(=O)N(C)[C@H](C(=O)N(C)C)CC(=O)N(C)[C@@H](CC3CCCC3)C(=O)N[C@@H]([C@@H](C)CC)C(=O)N(C)CC(=O)N(C)[C@H]3C/C=C\CCN(C3=O)[C@@H](Cc3ccc(C(F)(F)F)cc3)C(=O)N(C)CC(=O)N[C@@H](CCc3ccc(C(F)(F)F)c(OC)c3)C(=O)N2C1 [PP1212] | 0.28 nM | 35.6 nM | AA (a compound having 20 or more is denoted as AA) | A (a compound having 10 or more and less than 20 is denoted as A) |
| CCO[C@@H]1C[C@H]2C(=O)NC3(CCC3)C(=O)N(C)[C@@H](C(CC)CC)C(=O)N(C)[C@H](C(=O)N(C)C)CC(=O)N(C)[C@@H](COC)C(=O)N[C@@H]([C@@H](C)CC)C(=O)N(C)CC(=O)N(C)[C@H]3C/C=C\CCN(C3=O)[C@@H](Cc3ccc(C(F)(F)F)cc3)C(=O)N(C)CC(=O)N[C@@H](CCc3ccc(C(F)(F)F)c(OC)c3)C(=O)N2C1 [PP1213] | 0.18 nM | 40.4 nM | AA (a compound having 20 or more is denoted as AA) | A (a compound having 10 or more and less than 20 is denoted as A) |
| CCO[C@@H]1C[C@H]2C(=O)NC3(CCC3)C(=O)N(C)[C@@H](C(CC)CC)C(=O)N(C)[C@H](C(=O)N(C)C)CC(=O)N(C)[C@@H](C)C(=O)N[C@@H]([C@@H](C)CC)C(=O)N(C)CC(=O)N(C)[C@H]3C/C=C\CCN(C3=O)[C@@H](Cc3ccc(C(F)(F)F)cc3)C(=O)N(C)CC(=O)N[C@@H](CCc3ccc(Cl)c(Cl)c3)C(=O)N2C1 [PP1214] | 0.34 nM | 93.4 nM | AA (a compound having 20 or more is denoted as AA) | A (a compound having 10 or more and less than 20 is denoted as A) |
| CCO[C@@H]1C[C@H]2C(=O)NC3(CCC3)C(=O)N(C)[C@@H](C(CC)CC)C(=O)N(C)[C@H](C(=O)N(C)C)CC(=O)N(C)[C@@H](CC)C(=O)N[C@@H]([C@@H](C)CC)C(=O)N(C)CC(=O)N(C)[C@H]3C/C=C\CCN(C3=O)[C@@H](Cc3ccc(C(F)(F)F)cc3)C(=O)N(C)CC(=O)N[C@@H](CCc3ccc(Cl)c(Cl)c3)C(=O)N2C1 [PP1215] | 0.42 nM | 33.4 nM | AA (a compound having 20 or more is denoted as AA) | A (a compound having 10 or more and less than 20 is denoted as A) |
| CCC[C@H]1C(=O)N[C@@H]([C@@H](C)CC)C(=O)N(C)CC(=O)N(C)[C@H]2C/C=C\CCN(C2=O)[C@@H](Cc2ccc(C(F)(F)F)cc2)C(=O)N(C)CC(=O)N[C@@H](CCc2ccc(Cl)c(Cl)c2)C(=O)N2C[C@H](OCC)C[C@H]2C(=O)NC2(CCC2)C(=O)N(C)[C@@H](C(CC)CC)C(=O)N(C)[C@H](C(=O)N(C)C)CC(=O)N1C [PP1216] | 0.39 nM | 19.8 nM | AA (a compound having 20 or more is denoted as AA) | A (a compound having 10 or more and less than 20 is denoted as A) |
| CCO[C@@H]1C[C@H]2C(=O)NC3(CCC3)C(=O)N(C)[C@@H](C(CC)CC)C(=O)N(C)[C@H](C(=O)N(C)C)CC(=O)N(C)[C@@H](CC(C)C)C(=O)N[C@@H]([C@@H](C)CC)C(=O)N(C)CC(=O)N(C)[C@H]3C/C=C\CCN(C3=O)[C@@H](Cc3ccc(C(F)(F)F)cc3)C(=O)N(C)CC(=O)N[C@@H](CCc3ccc(Cl)c(Cl)c3)C(=O)N2C1 [PP1217] | 0.48 nM | 17.8 nM | AA (a compound having 20 or more is denoted as AA) | A (a compound having 10 or more and less than 20 is denoted as A) |

Now from value to compound, other results behind:

| Kd [1] | IC50 [3] | SMILES | NRAS/KRAS (ratio of KD value for NRAS to KD value for KRAS) [2] | HRAS/KRAS (ratio of KD value for HRAS to KD value for KRAS) [4] |
| --- | --- | --- | --- | --- |
| 0.88 nM | 67.9 nM | CCCCCC[C@H]1C(=O)N[C@@H]([C@@H](C)CC)C(=O)N(C)CC(=O)N(C)[C@H]2C/C=C\CCN(C2=O)[C@@H](Cc2ccc(C(F)(F)F)cc2)C(=O)N(C)CC(=O)N[C@@H](CCc2ccc(Cl)c(Cl)c2)C(=O)N2C[C@H](OCC)C[C@H]2C(=O)NC2(CCC2)C(=O)N(C)[C@@H](C(CC)CC)C(=O)N(C)[C@H](C(=O)N(C)C)CC(=O)N1C [PP1218] | AA (a compound having 20 or more is denoted as AA) | A (a compound having 10 or more and less than 20 is denoted as A) |
| 0.35 nM | 21.4 nM | CCO[C@@H]1C[C@H]2C(=O)NC3(CCC3)C(=O)N(C)[C@@H](C(CC)CC)C(=O)N(C)[C@H](C(=O)N(C)C)CC(=O)N(C)[C@@H](CC3CC3)C(=O)N[C@@H]([C@@H](C)CC)C(=O)N(C)CC(=O)N(C)[C@H]3C/C=C\CCN(C3=O)[C@@H](Cc3ccc(C(F)(F)F)cc3)C(=O)N(C)CC(=O)N[C@@H](CCc3ccc(Cl)c(Cl)c3)C(=O)N2C1 [PP1219] | AA (a compound having 20 or more is denoted as AA) | A (a compound having 10 or more and less than 20 is denoted as A) |
| 0.57 nM | 22.2 nM | CCO[C@@H]1C[C@H]2C(=O)NC3(CCC3)C(=O)N(C)[C@@H](C(CC)CC)C(=O)N(C)[C@H](C(=O)N(C)C)CC(=O)N(C)[C@@H](CC3CCCC3)C(=O)N[C@@H]([C@@H](C)CC)C(=O)N(C)CC(=O)N(C)[C@H]3C/C=C\CCN(C3=O)[C@@H](Cc3ccc(C(F)(F)F)cc3)C(=O)N(C)CC(=O)N[C@@H](CCc3ccc(Cl)c(Cl)c3)C(=O)N2C1 [PP1220] | AA (a compound having 20 or more is denoted as AA) | A (a compound having 10 or more and less than 20 is denoted as A) |
| 0.4 nM | 40.6 nM | CCO[C@@H]1C[C@H]2C(=O)NC3(CCC3)C(=O)N(C)[C@@H](C(CC)CC)C(=O)N(C)[C@H](C(=O)N(C)C)CC(=O)N(C)[C@@H](COC)C(=O)N[C@@H]([C@@H](C)CC)C(=O)N(C)CC(=O)N(C)[C@H]3C/C=C\CCN(C3=O)[C@@H](Cc3ccc(C(F)(F)F)cc3)C(=O)N(C)CC(=O)N[C@@H](CCc3ccc(Cl)c(Cl)c3)C(=O)N2C1 [PP1221] | AA (a compound having 20 or more is denoted as AA) | A (a compound having 10 or more and less than 20 is denoted as A) |
| 1.2 nM | 301 nM | CCO[C@@H]1C[C@H]2C(=O)NC3(CCC3)C(=O)N(C)[C@@H](C(CC)CC)C(=O)N(C)[C@H](C(=O)N(C)C)CC(=O)N(C)[C@@H](C)C(=O)N[C@@H]([C@@H](C)CC)C(=O)N(C)CC(=O)N(C)[C@H]3C/C=C\CCN(C3=O)[C@@H](Cc3ccc(C(F)(F)F)cc3)C(=O)N(C)CC(=O)N[C@@H](CCc3ccc4sccc4c3)C(=O)N2C1 [PP1222] | A (a compound having 10 or more and less than 20 is denoted as A) | A (a compound having 10 or more and less than 20 is denoted as A) |
| 1.2 nM | 117 nM | CCO[C@@H]1C[C@H]2C(=O)NC3(CCC3)C(=O)N(C)[C@@H](C(CC)CC)C(=O)N(C)[C@H](C(=O)N(C)C)CC(=O)N(C)[C@@H](CC)C(=O)N[C@@H]([C@@H](C)CC)C(=O)N(C)CC(=O)N(C)[C@H]3C/C=C\CCN(C3=O)[C@@H](Cc3ccc(C(F)(F)F)cc3)C(=O)N(C)CC(=O)N[C@@H](CCc3ccc4sccc4c3)C(=O)N2C1 [PP1223] | AA (a compound having 20 or more is denoted as AA) | A (a compound having 10 or more and less than 20 is denoted as A) |
| 1.2 nM | 122 nM | CCC[C@H]1C(=O)N[C@@H]([C@@H](C)CC)C(=O)N(C)CC(=O)N(C)[C@H]2C/C=C\CCN(C2=O)[C@@H](Cc2ccc(C(F)(F)F)cc2)C(=O)N(C)CC(=O)N[C@@H](CCc2ccc3sccc3c2)C(=O)N2C[C@H](OCC)C[C@H]2C(=O)NC2(CCC2)C(=O)N(C)[C@@H](C(CC)CC)C(=O)N(C)[C@H](C(=O)N(C)C)CC(=O)N1C [PP1224] | A (a compound having 10 or more and less than 20 is denoted as A) | A (a compound having 10 or more and less than 20 is denoted as A) |

Source: US20240158446A1, “CYCLIC COMPOUND HAVING SELECTIVE INHIBITORY ACTION ON KRAS OVER HRAS AND NRAS” (CHUGAI SEIYAKU KABUSHIKI KAISHA, priority 2021, published 2024)
